Measured values: patent US10479780B2, “Aminopyrazole derivatives” (Chugai Seiyaku Kabushiki Kaisha, priority 2015, dated 2019)

What was measured:
Assay type in all cases: biochemical
human Src enzyme = target: T1, human Src enzyme (Homo sapiens, UniProt P12931); assay: Src enzyme inhibitory activity (time-resolved fluorometry, biotinylated peptide phosphorylation); conditions: biotinylated peptide phosphorylation, read-out: SRC_IC50
T1 construct: purchased Carna Biosciences, Inc. 08-173
Summary of the method: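 Compounds were tested for blocking tyrosine phosphorylation of a biotinylated peptide substrate by recombinant human Src. Phosphorylated product was quantified by time-resolved fluorometry using europium cryptate and XL665 conjugates, and IC50 was calculated against the compound-free control.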

human Lck enzyme = target: T2, human Lck enzyme (Homo sapiens, UniProt P06239); assay: Lck enzyme inhibitory activity (time-resolved fluorometry, biotinylated peptide phosphorylation); conditions: biotinylated peptide phosphorylation, read-out: LCK_IC50
T2 construct: purchased Carna Biosciences, Inc. 08-170
T2 sequence (P06239 whole entry): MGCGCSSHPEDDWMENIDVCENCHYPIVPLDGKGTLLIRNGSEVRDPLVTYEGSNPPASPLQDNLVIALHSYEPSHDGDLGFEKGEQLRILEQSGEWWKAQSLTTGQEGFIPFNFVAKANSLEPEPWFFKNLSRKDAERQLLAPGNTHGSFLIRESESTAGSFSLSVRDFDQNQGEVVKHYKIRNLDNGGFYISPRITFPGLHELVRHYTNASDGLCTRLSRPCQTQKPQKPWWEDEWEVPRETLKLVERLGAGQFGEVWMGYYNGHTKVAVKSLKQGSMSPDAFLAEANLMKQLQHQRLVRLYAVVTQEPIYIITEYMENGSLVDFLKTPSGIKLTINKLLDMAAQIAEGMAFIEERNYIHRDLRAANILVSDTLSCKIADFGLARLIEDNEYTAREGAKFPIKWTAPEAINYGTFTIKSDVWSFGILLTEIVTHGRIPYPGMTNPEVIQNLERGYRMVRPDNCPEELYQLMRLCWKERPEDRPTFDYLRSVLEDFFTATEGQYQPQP
Summary of the method: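 Readout pairs a europium cryptate-labelled anti-phosphotyrosine antibody with XL665-streptavidin, measured by time-resolved fluorescence. IC50 derived from percent inhibition against untreated controls.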

human Yes1 enzyme = target: T3, human Yes1 enzyme (Homo sapiens, UniProt P07947); assay: Yes1 enzyme inhibitory activity (time-resolved fluorometry, biotinylated peptide phosphorylation); conditions: biotinylated peptide phosphorylation, read-out: YES_IC50
T3 construct: made in house
T3 sequence (P07947 whole entry): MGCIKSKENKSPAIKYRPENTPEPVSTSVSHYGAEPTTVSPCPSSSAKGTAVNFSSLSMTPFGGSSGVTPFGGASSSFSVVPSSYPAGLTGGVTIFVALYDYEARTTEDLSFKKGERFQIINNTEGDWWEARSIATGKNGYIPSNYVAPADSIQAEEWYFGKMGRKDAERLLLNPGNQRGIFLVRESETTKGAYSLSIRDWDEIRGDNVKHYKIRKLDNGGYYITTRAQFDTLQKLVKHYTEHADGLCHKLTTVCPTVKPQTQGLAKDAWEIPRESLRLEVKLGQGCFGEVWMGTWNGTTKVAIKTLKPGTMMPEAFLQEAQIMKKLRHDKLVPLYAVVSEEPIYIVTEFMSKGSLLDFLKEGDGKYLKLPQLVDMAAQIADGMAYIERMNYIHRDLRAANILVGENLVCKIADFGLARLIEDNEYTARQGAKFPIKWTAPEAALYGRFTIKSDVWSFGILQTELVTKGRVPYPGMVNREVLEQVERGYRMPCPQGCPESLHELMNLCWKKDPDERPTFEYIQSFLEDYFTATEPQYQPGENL
Summary of the method: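 Inhibition was expressed against a compound-free control to give IC50, using TR-FRET read-out (Eu-cryptate anti-pTyr antibody, streptavidin-XL665).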

T1 sequence (P12931 whole entry): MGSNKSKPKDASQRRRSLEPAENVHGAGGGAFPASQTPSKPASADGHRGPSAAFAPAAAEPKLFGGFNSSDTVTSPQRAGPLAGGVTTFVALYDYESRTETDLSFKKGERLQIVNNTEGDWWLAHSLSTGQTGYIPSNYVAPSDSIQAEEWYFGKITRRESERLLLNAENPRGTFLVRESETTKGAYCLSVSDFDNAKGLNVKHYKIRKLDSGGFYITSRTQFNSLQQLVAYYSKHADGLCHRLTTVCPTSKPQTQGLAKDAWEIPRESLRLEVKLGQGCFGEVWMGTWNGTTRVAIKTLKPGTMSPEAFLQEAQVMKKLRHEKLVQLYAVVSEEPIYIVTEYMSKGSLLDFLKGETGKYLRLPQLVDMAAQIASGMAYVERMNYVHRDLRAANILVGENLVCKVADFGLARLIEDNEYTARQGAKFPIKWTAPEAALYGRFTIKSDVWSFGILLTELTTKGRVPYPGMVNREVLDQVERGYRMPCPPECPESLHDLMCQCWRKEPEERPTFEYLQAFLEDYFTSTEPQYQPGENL

IC50 (human Src enzyme) [nM] | IC50 (human Lck enzyme) [nM] | IC50 (human Yes1 enzyme) [nM] | Structure (SMILES)
570 | 190 | 4.8 | Cc1cc2cc(C(=O)c3cnn(-c4cnc(Oc5ccccc5F)cc4C)c3N)[nH]c2cc1NS(=O)(=O)c1c(F)cc(F)cc1F [Example 5-1-501, N-[2-[5-amino-1-[6-(2-fluorophenoxy)-4-methylpyridin-3-yl]pyrazole-4-carbonyl]-5-methyl-1H-indol-6-yl]-2,4,6-trifluorobenzenesulfonamide]
350 | 110 | 2.3 | Cc1cc2cc(C(=O)c3cnn(-c4cnc(Oc5ccccc5F)cc4C)c3N)[nH]c2cc1NS(=O)(=O)c1cccc(F)n1 [Example 5-1-502, N-[2-[5-amino-1-[6-(2-fluorophenoxy)-4-methylpyridin-3-yl]pyrazole-4-carbonyl]-5-methyl-1H-indol-6-yl]-6-fluoropyridine-2-sulfonamide]
87 | 15 | 1.9 | COc1ccccc1-c1cc2[nH]c(C(=O)c3cnn(-c4cnc(Oc5c(F)cccc5F)cc4C)c3N)cc2cc1OC1CCN(C2CCCC2)CC1 [Example 5-1-503, [5-amino-1-[6-(2,6-difluorophenoxy)-4-methylpyridin-3-yl]pyrazol-4-yl]-[5-(1-cyclopentylpiperidin-4-yl)oxy-6-(2-methoxyphenyl)-1H-indol-2-yl]methanone]
630 | 140 | 3.6 | Cc1cnc(F)c(S(=O)(=O)Nc2cc3[nH]c(C(=O)c4cnn(-c5cnc(Oc6ccccc6F)cc5C)c4N)cc3cc2C)c1 [Example 5-1-504, N-[2-[5-amino-1-[6-(2-fluorophenoxy)-4-methylpyridin-3-yl]pyrazole-4-carbonyl]-5-methyl-1H-indol-6-yl]-2-fluoro-5-methylpyridine-3-sulfonamide]
470 | 68 | 2.5 | Cc1cc2cc(C(=O)c3cnn(-c4cnc(Oc5ccccc5F)cc4C)c3N)[nH]c2cc1NS(=O)(=O)c1cc(F)ccn1 [Example 5-1-505, N-[2-[5-amino-1-[6-(2-fluorophenoxy)-4-methylpyridin-3-yl]pyrazole-4-carbonyl]-5-methyl-1H-indol-6-yl]-4-fluoropyridine-2-sulfonamide]
500 | 99 | 3 | Cc1ccnc(S(=O)(=O)Nc2cc3[nH]c(C(=O)c4cnn(-c5cnc(Oc6ccccc6F)cc5C)c4N)cc3cc2C)c1 [Example 5-1-506, N-[2-[5-amino-1-[6-(2-fluorophenoxy)-4-methylpyridin-3-yl]pyrazole-4-carbonyl]-5-methyl-1H-indol-6-yl]-4-rmethylpyridine-2-sulfonamide]
480 | 92 | 2.8 | Cc1cccc(S(=O)(=O)Nc2cc3[nH]c(C(=O)c4cnn(-c5cnc(Oc6ccccc6F)cc5C)c4N)cc3cc2C)n1 [Example 5-1-507, N-[2-[5-amino-1-[6-(2-fluorophenoxy)-4-methylpyridin-3-yl]pyrazole-4-carbonyl]-5-methyl-1H-indol-6-yl]-6-methylpyridine-2-sulfonamide]
920 | 140 | 4 | Cc1cc2cc(C(=O)c3cnn(-c4cnc(Oc5ccccc5F)cc4C)c3N)[nH]c2cc1NS(=O)(=O)c1cccc(Cl)n1 [Example 5-1-508, N-[2-[5-amino-1-[6-(2-fluorophenoxy)-4-methylpyridin-3-yl]pyrazole-4-carbonyl]-5-methyl-1H-indol-6-yl]-6-chloropyridine-2-sulfonamide]
840 | 130 | 3.7 | Cc1cc2cc(C(=O)c3cnn(-c4cnc(Oc5ccccc5F)cc4C)c3N)[nH]c2cc1NS(=O)(=O)c1cc(Cl)ccn1 [Example 5-1-509, N-[2-[5-amino-1-[6-(2-fluorophenoxy)-4-methylpyridin-3-yl]pyrazole-4-carbonyl]-5-methyl-1H-indol-6-yl]-4-chloropyridine-2-sulfonamide]
